From patent publication EP1873150A1, “Fluorinated indoleamides useful as ligands of the ORL-1 receptor” (NIKEM RESEARCH S.R.L., priority 2006, dated 2008)
Read-outs that look alike come from different tables or passages of the source.

Experiments:
ORL-1 receptor = ORL-1 receptor (Homo sapiens, UniProt P41146); assay: ORL-1 receptor binding studies, radioligand [3H]-AcRYYRWK-NH2
Description: The receptor binding studies were carried out on 96-well plates; the incubation medium was Tris HCl pH 7.4 (4°C) containing MgCl2 (5 mM), EGTA (0.2 mM), BSA (0.1 %), with a final volume of […], using as radioligand [^3H]-AcRYYRWK-NH2 (Amersham, 103 Ci/mmol). The samples were incubated at 37°C for 120 min. and were then filtered off via Whatman GF/B filters pre-treated with 0.2% polyethylenimine. The filters were washed three times with Tris HCl buffer pH 7.4 (4°C). The radioactivity present on the filters was measured using a Packard Top Count microplate scintillation counter.

CYP1A2 = target: T1, CYP1A2 (Homo sapiens, UniProt P05177); assay: Interaction with Cytochrome P450 isoenzymes: CYP1A2; format: in vitro ADME; conditions: Supersomes expressing human CYP1A2, substrate CEC, fluorometric; read-out: CYP450 interaction (IC50, uM) 1A2
T1 construct: purchased Gentest Corporation, Woburn, MA (Supersomes); host or cells: baculovirus-insect cells
T1 sequence (P05177 1-516): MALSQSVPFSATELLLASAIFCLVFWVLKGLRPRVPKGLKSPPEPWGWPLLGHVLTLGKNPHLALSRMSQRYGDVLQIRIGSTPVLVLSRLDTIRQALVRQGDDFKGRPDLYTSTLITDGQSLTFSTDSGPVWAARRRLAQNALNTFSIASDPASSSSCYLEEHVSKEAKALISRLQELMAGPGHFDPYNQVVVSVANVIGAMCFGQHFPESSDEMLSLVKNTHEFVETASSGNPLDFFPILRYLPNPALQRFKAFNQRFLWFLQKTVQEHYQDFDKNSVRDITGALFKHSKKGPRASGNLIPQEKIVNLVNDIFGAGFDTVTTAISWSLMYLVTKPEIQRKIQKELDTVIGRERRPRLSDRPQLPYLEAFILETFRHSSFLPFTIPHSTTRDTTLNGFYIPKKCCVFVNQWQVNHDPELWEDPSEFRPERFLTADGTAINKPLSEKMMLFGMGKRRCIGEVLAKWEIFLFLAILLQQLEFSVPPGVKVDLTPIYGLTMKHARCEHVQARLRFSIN
Description: (§1) The assay was performed in a 96-well microtiter plates as described in Stresser et al., Drug Metab. Dispos. 28, 1440 (2000). Microsomes from baculovirus-insect cells (Supersomes, Gentest Corporation, Woburn, MA) expressing human cytochrome P450 isoforms (CYP1A2, CYP2C9, CYP2C19, CYP2D6 and CYP3A4) were utilized. Test compounds or standard inhibitors (dissolved in DMSO or acetonitrile) were serially diluted in a solution containing 16.3 uM NADP^+, 0.83 mM glucose-6-phosphate, 0.83 mM MgCl2, 0.4 U/mL of glucose-6-phosphate dehydrogenase and 0.1 mg/mL microsomal protein prepared from wild-type baculovirus-infected insect cells. Appropriate control wells without inhibitor and without microsomes were also added. The plates were then pre-warmed at 37°C for 10 min, and the reaction was started by adding pre-warmed enzyme/substrate mix (cytochrome P450 isoforms with their specific substrates in a 0.35 M potassium phosphate buffer at pH 7.4). Specific substrates were 3-cyano-7-ethoxycoumarin (CEC) for CYP1A2 and CYP2C19, 7-methoxy-4-trifluoromethylcoumarin (MFC) or dibenzylfluorescein (DBF) for CYP2C9, 3-[2-(N,N-diethyl-N-methylamino)ethyl]-7-methoxy-4-methylcoumarin (AMMC) for CYP2D6 and 7-benzyloxy-4-(trifluoromethyl)-coumarin (BFC) for CYP3A4. Reaction was terminated at various times, depending on the assays, by addition of a 4:1 acetonitrile:0.5 M Tris base solution. Known inhibitors for each isoenzyme (furafylline for CYP1A2, sulfaphenazole for CYP2C9, tranylcypromine for CYP2C19, quinidine for CYP2D6 and ketoconazole for CYP3A4) were tested in all assays as positive controls. Plates were read on a fluorometer (Fluoroskan Ascent, ThermoElectron Corporation, Helsinki, Finland) at the appropriate emission/excitation wavelengths. Median inhibitory concentration (IC50) was determined by nonlinear regression (GraFit software, Erithacus Software, Horley, UK).

CYP2C9 = target: T2, CYP2C9 (Homo sapiens, UniProt P11712); assay: Interaction with Cytochrome P450 isoenzymes: CYP2C9; format: in vitro ADME; conditions: Supersomes expressing human CYP2C9, substrate MFC or DBF, fluorometric; read-out: CYP450 interaction (IC50, uM) 2C9
T2 construct: purchased Gentest Corporation, Woburn, MA (Supersomes); host or cells: baculovirus-insect cells
Description: as §1

CYP2C19 = target: T3, CYP2C19 (Homo sapiens, UniProt P33261); assay: Interaction with Cytochrome P450 isoenzymes: CYP2C19; format: in vitro ADME; conditions: Supersomes expressing human CYP2C19, substrate CEC, fluorometric; read-out: CYP450 interaction (IC50, uM) 2C19
T3 construct: purchased Gentest Corporation, Woburn, MA (Supersomes); host or cells: baculovirus-insect cells
Description: as §1

CYP2D6 = target: T4, CYP2D6 (Homo sapiens, UniProt P10635); assay: Interaction with Cytochrome P450 isoenzymes: CYP2D6; format: in vitro ADME; conditions: Supersomes expressing human CYP2D6, substrate AMMC, fluorometric; read-out: CYP450 interaction (IC50, uM) 2D6
T4 construct: purchased Gentest Corporation, Woburn, MA (Supersomes); host or cells: baculovirus-insect cells
Description: as §1

CYP3A4 = target: T5, CYP3A4 (Homo sapiens, UniProt P08684); assay: Interaction with Cytochrome P450 isoenzymes: CYP3A4; format: in vitro ADME; conditions: Supersomes expressing human CYP3A4, substrate BFC, fluorometric; read-out: CYP450 interaction (IC50, uM) 3A4
T5 construct: purchased Gentest Corporation, Woburn, MA (Supersomes); host or cells: baculovirus-insect cells
Description: as §1

[1] = radioligand [3H]-AcRYYRWK-NH2, 37°C, 120 min, read-out: ORL-1 Binding affinity (Ki)

T2 sequence (P11712 whole entry): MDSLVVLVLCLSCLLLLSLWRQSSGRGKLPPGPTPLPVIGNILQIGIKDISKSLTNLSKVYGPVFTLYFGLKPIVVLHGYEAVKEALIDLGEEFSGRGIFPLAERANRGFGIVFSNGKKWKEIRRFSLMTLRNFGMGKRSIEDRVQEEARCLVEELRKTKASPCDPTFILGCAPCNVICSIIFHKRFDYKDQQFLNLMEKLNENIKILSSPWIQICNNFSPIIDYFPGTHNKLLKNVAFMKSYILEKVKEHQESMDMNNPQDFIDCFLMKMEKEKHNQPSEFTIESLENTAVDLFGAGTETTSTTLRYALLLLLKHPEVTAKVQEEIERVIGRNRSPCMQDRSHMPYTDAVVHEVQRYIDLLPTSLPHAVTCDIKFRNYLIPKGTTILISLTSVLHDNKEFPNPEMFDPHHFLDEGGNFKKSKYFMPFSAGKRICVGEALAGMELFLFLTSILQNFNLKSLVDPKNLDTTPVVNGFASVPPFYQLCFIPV
T3 sequence (P33261 whole entry): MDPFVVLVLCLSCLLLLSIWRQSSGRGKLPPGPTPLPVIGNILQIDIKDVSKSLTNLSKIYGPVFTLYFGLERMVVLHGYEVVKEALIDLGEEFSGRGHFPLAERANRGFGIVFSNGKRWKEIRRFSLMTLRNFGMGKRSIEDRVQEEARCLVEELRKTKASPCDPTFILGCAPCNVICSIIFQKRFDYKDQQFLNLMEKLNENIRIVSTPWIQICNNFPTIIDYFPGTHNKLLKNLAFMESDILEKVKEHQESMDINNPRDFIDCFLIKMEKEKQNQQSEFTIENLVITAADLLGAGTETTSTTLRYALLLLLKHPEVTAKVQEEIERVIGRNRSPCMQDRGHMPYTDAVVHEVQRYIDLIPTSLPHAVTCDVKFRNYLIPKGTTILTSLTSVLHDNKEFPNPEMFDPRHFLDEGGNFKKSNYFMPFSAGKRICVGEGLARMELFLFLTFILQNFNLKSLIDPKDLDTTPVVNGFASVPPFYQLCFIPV
T4 sequence (P10635 whole entry): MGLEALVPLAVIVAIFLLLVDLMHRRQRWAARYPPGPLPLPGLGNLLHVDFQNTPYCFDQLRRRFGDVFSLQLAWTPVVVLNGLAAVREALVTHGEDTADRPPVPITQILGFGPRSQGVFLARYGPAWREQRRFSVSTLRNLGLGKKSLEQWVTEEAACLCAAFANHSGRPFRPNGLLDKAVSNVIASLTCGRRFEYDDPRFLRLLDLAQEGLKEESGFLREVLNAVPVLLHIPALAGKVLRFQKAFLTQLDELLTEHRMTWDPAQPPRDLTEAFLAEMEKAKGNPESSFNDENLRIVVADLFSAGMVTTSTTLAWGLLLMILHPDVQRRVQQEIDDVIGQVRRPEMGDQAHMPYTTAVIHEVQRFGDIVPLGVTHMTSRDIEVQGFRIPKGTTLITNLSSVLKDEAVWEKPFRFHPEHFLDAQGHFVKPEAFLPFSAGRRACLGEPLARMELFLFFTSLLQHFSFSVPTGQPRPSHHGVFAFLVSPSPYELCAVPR
ORL-1 receptor, sequence (P41146 whole entry): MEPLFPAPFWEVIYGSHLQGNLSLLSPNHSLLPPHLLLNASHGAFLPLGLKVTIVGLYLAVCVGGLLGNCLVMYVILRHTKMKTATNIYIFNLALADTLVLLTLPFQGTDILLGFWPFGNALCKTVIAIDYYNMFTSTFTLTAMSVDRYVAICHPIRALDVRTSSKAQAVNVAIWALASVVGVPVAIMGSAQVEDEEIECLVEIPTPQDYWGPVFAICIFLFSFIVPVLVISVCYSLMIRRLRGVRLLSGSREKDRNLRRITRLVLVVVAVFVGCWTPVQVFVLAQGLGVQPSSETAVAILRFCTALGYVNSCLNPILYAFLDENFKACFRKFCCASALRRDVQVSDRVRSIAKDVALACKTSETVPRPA
T5 sequence (P08684 whole entry): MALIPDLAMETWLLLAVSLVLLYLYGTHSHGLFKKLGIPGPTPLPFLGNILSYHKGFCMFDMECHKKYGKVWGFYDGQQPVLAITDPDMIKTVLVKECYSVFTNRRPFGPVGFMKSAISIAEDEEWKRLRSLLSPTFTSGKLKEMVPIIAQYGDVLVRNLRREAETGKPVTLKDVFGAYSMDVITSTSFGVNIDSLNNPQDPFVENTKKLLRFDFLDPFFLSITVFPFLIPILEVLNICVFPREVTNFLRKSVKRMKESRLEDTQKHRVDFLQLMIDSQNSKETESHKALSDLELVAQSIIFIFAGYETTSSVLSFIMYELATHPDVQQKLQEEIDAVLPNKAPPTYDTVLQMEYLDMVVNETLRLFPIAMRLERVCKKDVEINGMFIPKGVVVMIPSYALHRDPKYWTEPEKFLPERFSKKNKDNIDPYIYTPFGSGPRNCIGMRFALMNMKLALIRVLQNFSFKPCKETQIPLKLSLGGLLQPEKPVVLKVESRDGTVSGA

Row | SMILES | Ki (ORL-1 receptor; [1]) [µM] | IC50 (CYP1A2) [µM] | IC50 (CYP2C9) [µM] | IC50 (CYP2C19) [µM] | IC50 (CYP2D6) [µM] | IC50 (CYP3A4) [µM] | Ki (ORL-1 receptor) [µM]
1 | CN1CCN(C(=O)Cn2c(-c3ccccc3)c(CN3CCC(c4c(F)cccc4F)CC3)c3ccccc32)CC1 [Example 15, 2-{3-[4-(2,6-Difluoro-phenyl)-piperidin-1-ylmethyl]-2-phenyl-indol-1-yl}-1-(4-methyl-piperazin-1-yl)-ethanone] | 0.0082 | > 100 | 74.4 | 38.3 | 34.7 | 6.2 | 
2 | O=C(Cn1c(-c2ccccc2)c(CN2CCC(c3c(F)cccc3F)CC2)c2ccccc21)N1CCOCC1 [Example 13, 2-{3-[4-(2,6-Difluoro-phenyl)-piperidin-1-ylmethyl]-2-phenyl-indol-1-yl}-l-morpholin-4-yl-ethanone] |  | > 100 | 98.6 | 62.6 | 94.6 | 38.1 | 0.018
3 | CC(=O)N(C)C1CCN(C(=O)c2[nH]c3ccccc3c2CN2CCC(c3c(F)cccc3Cl)CC2)C1 (stereo not shown) [Example 3, N-(1-{3-[4-(2-Chloro-6-fluoro-phenyl)-piperidin-1-ylmethyl]-1 H-indole-2-carbonyl}-pyrrolidin-3-yl)-N-methyl-acetamide] | 0.0042 | > 100 | 25.9 | 47.5 | 8.6 | 54.7 | 
4 | NC(=O)Cn1c(C(=O)N2CCOCC2)c(CN2CCC(c3c(F)cccc3Cl)CC2)c2ccccc21 [Example 7, 2-[3-[4-(2-Chloro-6-fluoro-phenyl)-piperidin-1-ylmethyl]-2-(morpholine-4-carbonyl)-indol-1-yl]-acetamide] | 0.0048 | > 100 | 20.2 | 25.1 | 16.8 | 13.3 | 
5 | Cc1c(CN2CCC(c3c(F)cccc3Cl)CC2)c2ccccc2n1CC(=O)NC1CCN(C)CC1 [Example 11, 2-{3-[4-(2-Chloro-6-fluoro-phenyl)-piperidin-1-ylmethyl]-2-methyl-indol-1-yl}-N-(1-methyl-piperidin-4-yl)-acetamide] |  | > 100 | > 100 | 47.4 | 20.7 | 9.6 | 0.0055
6 | O=C(c1[nH]c2ccccc2c1CN1CCC(c2c(F)cccc2F)CC1)N1CCN(CCOCCO)CC1 [Example 6, {3-[4-(2,6-Difluoro-phenyl)-piperidin-1-ylmethyl]-1H-indol-2-yl}-{4-[2-(2-hydroxy-ethoxy)-ethyl]-piperazin-1-yl}-methanone] | 0.034 | > 100 | > 100 | > 100 | 5.1 | 98.2 | 
7 | O=C(Cn1c(-c2ccccc2)c(CN2CCC(c3c(F)cccc3Cl)CC2)c2ccccc21)N1CCOCC1 [Example 12, 2-{3-[4-(2-Chloro-6-fluoro-phenyl)-piperidin-1-ylmethyl]-2-phenyl-indol-1-y}-1-morpholin-4-yl-ethanone] | 0.0028 | > 100 | > 100 | > 100 | 36.6 | 18.2 | 
8 | Fc1cccc(F)c1C1CCN(Cc2c(-c3ccccc3)[nH]c3ccccc23)CC1 [53 (W02005005411), reference compound] |  | 11.8 | 10.7 | 17.4 | < 0.1 | 13 | 
9 | NC(=O)Cn1c(C(=O)N2CCOCC2)c(CN2CCC(c3c(F)cccc3F)CC2)c2ccccc21 [Example 8, 2-[3-[4-(2,6-Difluoro-phenyl)-piperidin-1-ylmethyl]-2-(morpholine-4-carbonyl)-indol-1-yl]-acetamide] |  | 86 | 31.2 | 70.1 | 6.2 | 25.6 | 
